Laboratory results published in EP4624465A1, “COMPOUND SERVING AS DDR1 KINASE INHIBITOR, AND MEDICINE” (Nippon Shinyaku Co., Ltd., priority 2022, dated 2024).
Structures can show the parent of a compound that is named as a salt.

Assays:
DDR1 kinase [1] = target: T1, DDR1 kinase (Homo sapiens, UniProt Q08345); test: Evaluation of DDR1 kinase inhibition in DDR1-expressing U2OS cells (type I collagen stimulation, PathHunter detection); assay type: cell-based; parameters: host or cells: U2OS; settings: type I collagen 50 µg/mL stimulation, duplicate, read-out: DDR-1 IC50
Target sequence in this assay (Q08345 19-913): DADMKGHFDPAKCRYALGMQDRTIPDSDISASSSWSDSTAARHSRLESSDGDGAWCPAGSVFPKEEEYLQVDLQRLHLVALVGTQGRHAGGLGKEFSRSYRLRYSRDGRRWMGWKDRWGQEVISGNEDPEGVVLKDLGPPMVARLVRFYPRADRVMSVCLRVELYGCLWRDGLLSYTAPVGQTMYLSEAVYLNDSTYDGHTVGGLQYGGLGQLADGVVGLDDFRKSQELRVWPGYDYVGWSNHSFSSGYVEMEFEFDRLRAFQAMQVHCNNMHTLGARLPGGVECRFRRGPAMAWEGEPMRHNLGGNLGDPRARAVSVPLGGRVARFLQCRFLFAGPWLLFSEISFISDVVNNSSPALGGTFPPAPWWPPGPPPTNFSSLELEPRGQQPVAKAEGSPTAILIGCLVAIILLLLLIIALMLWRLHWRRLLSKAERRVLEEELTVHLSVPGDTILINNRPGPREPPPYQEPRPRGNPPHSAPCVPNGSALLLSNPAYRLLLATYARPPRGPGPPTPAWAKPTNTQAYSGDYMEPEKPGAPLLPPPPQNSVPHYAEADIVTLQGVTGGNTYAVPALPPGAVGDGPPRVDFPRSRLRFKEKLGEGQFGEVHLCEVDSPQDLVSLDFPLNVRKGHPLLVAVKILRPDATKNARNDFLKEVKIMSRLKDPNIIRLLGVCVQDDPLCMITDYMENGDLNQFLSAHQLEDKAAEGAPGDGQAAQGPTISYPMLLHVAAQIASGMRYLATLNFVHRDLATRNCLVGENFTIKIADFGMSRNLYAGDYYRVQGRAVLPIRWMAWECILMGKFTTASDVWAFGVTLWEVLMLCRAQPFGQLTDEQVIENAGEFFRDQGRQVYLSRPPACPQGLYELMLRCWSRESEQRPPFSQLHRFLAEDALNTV

DDR1 kinase [2] = target: T1, DDR1 kinase; test: Evaluation of DDR1 kinase inhibition (LANCE Ultra TR-FRET kinase assay); assay type: biochemical; parameters: purchased Carna Biosciences 08-113; settings: DDR1 protein 0.5 nM, LANCE Ultra ULight-poly GAT substrate, 2 hours at room temperature, duplicate; read-out: DDR-1 IC50
Target sequence in this assay (Q08345 19-876 isoform Q08345-2 limits assumed): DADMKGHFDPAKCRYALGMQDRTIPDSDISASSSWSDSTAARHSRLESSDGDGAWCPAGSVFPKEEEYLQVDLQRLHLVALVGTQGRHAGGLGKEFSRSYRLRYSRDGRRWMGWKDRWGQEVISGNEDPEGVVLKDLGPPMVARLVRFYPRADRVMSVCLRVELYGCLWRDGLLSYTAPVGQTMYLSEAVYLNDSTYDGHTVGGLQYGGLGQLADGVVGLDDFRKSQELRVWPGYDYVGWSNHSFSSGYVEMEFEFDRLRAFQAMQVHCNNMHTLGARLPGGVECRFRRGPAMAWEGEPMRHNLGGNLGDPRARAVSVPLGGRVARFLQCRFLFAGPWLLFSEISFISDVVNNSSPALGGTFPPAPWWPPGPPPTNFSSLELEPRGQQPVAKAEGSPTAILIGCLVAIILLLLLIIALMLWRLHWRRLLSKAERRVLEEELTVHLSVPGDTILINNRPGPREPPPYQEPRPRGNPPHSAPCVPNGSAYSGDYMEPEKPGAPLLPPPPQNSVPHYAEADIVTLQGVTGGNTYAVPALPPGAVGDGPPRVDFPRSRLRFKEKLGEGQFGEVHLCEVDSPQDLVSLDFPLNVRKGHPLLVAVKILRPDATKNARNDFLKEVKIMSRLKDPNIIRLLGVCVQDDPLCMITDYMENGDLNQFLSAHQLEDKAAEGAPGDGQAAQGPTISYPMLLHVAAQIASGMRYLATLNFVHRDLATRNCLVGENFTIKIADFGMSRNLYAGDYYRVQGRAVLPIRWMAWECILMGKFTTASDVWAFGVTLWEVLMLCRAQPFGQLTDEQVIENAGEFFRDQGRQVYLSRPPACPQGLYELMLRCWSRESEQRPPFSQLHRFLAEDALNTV

Structure (SMILES) | IC50 (DDR1 kinase [1]) [nM] | IC50 (DDR1 kinase [2]) [nM]
C[C@@H]1CN(C(=O)Cn2nc(C3CN(C(=O)c4ccnc(N)c4)C3)c3c(F)cc(F)cc32)C[C@H](C)O1 [Compound E-84, 2-{3-[1-(2-aminopyridine-4-carbonyl)azetidin-3-yl)-4,6-difluoro-1H-indazol-1-yl}-1-[(2R,68)-2,6-dimethylmorpholin-4-yl]ethan-1-one] | 2300 | 0.3
CC(C)N(C)C(=O)Cn1nc(C2CN(C(=O)c3cc(N)ncc3F)C2)c2ccccc21 [Compound E-253, 2-{3-[1-(2-amino-5-fluoropyridine-4-carbonyl)azetidin-3-yl]-1H. indazol-1-yl}-N-methyl-N-(propan-2-yl)acetamide] | 170 | 9.5
Nc1cc(C(=O)N2CC(c3nn(Cc4nc(C(F)(F)F)no4)c4ccccc34)C2)c(F)cn1 [Compound E-18, 5-fluoro-4-[3-(1-{[3-(trifluoromethyl)-1,2,4-oxadiazol-5-yl]methyl}-1H-indazol-3-yl)azetidine-1-carbonyl]pyridin-2-amine] | 26 | 6.9
Cc1nc(N)oc1C(=O)N1CC(c2nn(CC(=O)N3CCC[C@H]3C(F)(F)F)c3cc(F)cc(F)c23)C1 [Compound E-110, 2-{3-{1-(2-amino-4-methyl-1,3-oxazole-5-carbonyl)azetidin-3-yl}-4,6-difluoro-1H-indazol-1-yl}-1-[(2S)-2-(trifluoromethyl)pyrrolidin-1-yl]ethan-1-one] | 110 | 45
Cc1ccc2c(n1)c(C1CN(C(=O)c3cc(N)ncc3F)C1)nn2CC(=O)N1CCOCC1(C)C [Compound E-186, 2-{3-[1-(2-amino-5-fluoropyridine-4-carbonyl)azetidin-3-yl]-5-methyl-1H-pyrazolo[4,3-b]pyridin-1-yl}-1-(3,3-dimethylmorpholin-4-yl)ethan-1-one p-toluenesulfonate] | 690 | 23
CN(CC(F)(F)F)C(=O)Cn1nc(C2CN(C(=O)c3nc(N)ncc3F)C2)c2ccccc21 [Compound E-276, 2-{3-[1-(2-amino-5-fluoropyrimidine-4-carbonyl)azetidin-3-yl)-1H-indazol-1-yl}-N-methyl-N-(2,2,2-trifluoroethyl)acetamide] | 430 | 19
CN(CC(F)(F)F)C(=O)Cn1nc(C2CN(C(=O)c3ccnc(N)n3)C2)c2cc(Cl)ccc21 [Compound E-4, 2-{3-[1-(2-aminopyrimidine-4-carbonyl)azetidin-3-yl]-5-chloro-1H-indazol-1-yl}-N-methyl-N-(2,2,2-trifluoroethyl)acetamide] | 55 | 2
Cc1nc(NC2CC2)sc1C(=O)N1CC(c2nn(CC(=O)N3CCC[C@H]3C(F)(F)F)c3cc(F)cc(F)c23)C1 [Compound E-99, 2-(3-{1-[2-(cyclopropylamino)-4-methyl-1,3-thiazole-5-carbonyl]azetidin-3-yl}-4,6-difluoro-1H-indazol-1-y1)-1-[(2S)-2-(trifluoromethyl)pyrrolidin-1-yl]ethan-1-one] | 150 | 40
Nc1cc(C(=O)N2CC(c3nn(Cc4cn(CC5CCC5)nn4)c4cccc(F)c34)C2)ccn1 [Compound E-92, 4-[3-(1-{[1-(cyclobutylmethyl)-1H-1,2,3-triazol-4-yl]methyl}-4-fluoro-1H-indazol-3-yl)azetidine-1-carbonyl]pyridin-2-amine hydrochloride] | 1400 | 71
CCNc1cc(C(=O)N2CC(c3nn(CC(=O)NCC(F)(F)F)c4cccc(Cl)c34)C2)ccn1 [Compound E-64, 2-(4-chloro-3-(1-[2-(ethylamino)pyridine-4-carbonyl]azetidin-3-yl}-1H-indazol-1-yl)-N-(2,2,2-trifluoroethyl)acetamide hydrochloride] | 180 | 62
CNc1cc(C(=O)N2CC(c3nn(CC(=O)NCC(F)(F)F)c4cccc(Cl)c34)C2)ccn1 [Compound E-63, 2-(4-chloro-3-{1-[2-(methylamino)pyridine-4-carbonyl]azetidin-3-yl]-1H-indazol-1-yl)-N-(2,2,2-trifluoroethyl)acetamide] | 140 | 4.3
C[C@H]1CN(C(=O)Cn2nc(C3CN(C(=O)c4ccnc(N)c4)C3)c3c(F)cc(F)cc32)CCO1 [Compound E-79, 2-{3-[1-(2-aminopyridine-4-carbonyl)azetidin-3-yl]-4,6-difluoro-1H-indazol-1-yl}-1-[(2S)-2-methylmorpholin-4-yl]ethan-1-one hydrochloride] | 3400 | 35

Other lines, results leading:

IC50 (DDR1 kinase [1]) [nM] | IC50 (DDR1 kinase [2]) [nM] | Structure (SMILES)
82 | 5.7 | Cc1ccc2c(n1)c(C1CN(C(=O)c3ccnc(NC4CC4)c3)C1)nn2CC(=O)N1CCC[C@H]1C(F)(F)F [Compound E-130, 2-(3-(1-[2-(cyclopropylamino)pyridine-4-carbonyl]azetidin-3-yl}-5-methyl-1H-pyrazolo[4,3-b}pyridin-1-yl)-1-[(2S)-2-(trifluoromethyl)pyrrolidin-1-yl]ethan-1-one]
480 | 7.7 | Nc1cc(C(=O)N2CC(c3nn(CC(=O)N4CCO[C@@H](C(F)(F)F)C4)c4cccc(F)c34)C2)ccn1 [Compound E-95, 2-{3-[1-(2-aminopyridine-4-carbonyl)azetidin-3-yl]-4-fluoro-1H-indazol-1-yl}-1-[(2R)-2-(trifluoromethyl)morpholin-4-yl]ethan-1-one hydrochloride]
720 | 15 | Nc1cc(C(=O)N2CC(c3nn(CC(=O)N4CCC[C@H]4C(F)(F)F)c4cc(F)cc(F)c34)C2)cnn1 [Compound E-16, 2-{3-[1-(6-aminopyridazine-4-carbonyl)azetidin-3-yl]-4,6-difluoro-1H-indazol-1-yl)-1-[(2S)-2-(trifluoromethyl)pyrrolidin-1-yl]ethan-1-one]
70 | 6.3 | Nc1nccc(C(=O)N2CC(c3nn(CC(=O)N4CCC[C@H]4C(F)(F)F)c4cc(F)cc(F)c34)C2)n1 [Compound E-129, 2-{3-[1-(2-aminopyrimidine-4-carbonyl)azetidin-3-yl}-4,6-difluoro-1H-indazol-1-yl}-1-[(2S)-2-(trifluoromethyl)pyrrolidin-1-yl]ethan-1-one]
8 | 3.8 | O=C(Cn1nc(C2CN(C(=O)c3ccnc(NC4CCC4)c3)C2)c2c(F)cccc21)NCC(F)(F)F [Compound E-68, 2-(3-{1-[2-(cyclobutylamino)pyridine-4-carbonyl]azetidin-3-yl}-4-fluoro-1H-indazol-1-yl)-N-(2,2,2-trifluoroethyl)acetamide hydrochloride]
290 | 27 | Nc1cc(C(=O)N2CC(c3nn(CC(=O)NCC(F)(F)F)c4ccccc34)C2)ccn1 [Compound E-211, 2-{3-[1-(2-aminopyridine-4-carbonyl)azetidin-3-yl]-1H-indazol-1-yl}-N-(2,2,2-trifluoroethyl)acetamide]
84 | 0.9 | Nc1cc(C(=O)N2CC(c3nn(CC(=O)N4CCC[C@H]4C(F)(F)F)c4cccc(F)c34)C2)ccn1 [Compound E-96, 2-{3-[1-(2-aminopyridine-4-carbonyl)azetidin-3-yl]-4-fluoro-1H-indazol-1-yl}-1-[(2S)-2-(trifluoromethyl)pyrrolidin-1-yl]ethan-1-one]
69 | 5.7 | Nc1cc(C(=O)N2CC(c3nn(CC(=O)N4CCC[C@H]4C(F)(F)F)c4ccccc34)C2)ccn1 [Compound E-40, 2-{3-[1-(2-aminopyridine-4-carbonyl)azetidin-3-yl]-1H-indazol-1-yl}-1-[(2S)-2-(trifluoromethyl)pyrrolidin-1-yl]ethan-1-one]
19 | 2.5 | Nc1cc(C(=O)N2CC(c3nn(CC(=O)N(CC(F)(F)F)C4CC4)c4ccccc34)C2)c(F)cn1 [Compound E-251, 2-{3-[1-(2-amino-5-fluoropyridine-4-carbonyl)azetidin-3-yl]-1H-indazol-1-yl}-N-cyclopropyl-N-(2,2,2-trifluoroethyl)acetamide]
100 | 1 | Nc1cc(C(=O)N2CCC(c3cn(CC(=O)N4CCC[C@H]4C(F)(F)F)c4cccc(F)c34)CC2)ccn1 [Compound E-108, 2-{3-[1-(2-aminopyridine-4-carbonyp)piperidin-4-yl]-4-fluoro-1H-indol-1-yl}-1-[(2S)-2-(trifluoromethyl)pyrrolidin-1-yl]ethan-1-one]
34 | 3.8 | Nc1cc(C(=O)N2CC(c3nn(CC(=O)N4CC(F)(F)C[C@H]4CF)c4ccccc34)C2)c(F)cn1 [Compound E-237, 2-{3-[1-(2-amino-5-fluoropyridine-4-carbonyl)azetidin-3-yl]-1H-indazol-1-yl]-1-[(2S)-4,4-difluoro-2-(fluoromethyl)pyrrolidin-1-yl]ethan-1-one]
670 | 91 | Nc1cc(C(=O)N2CC(c3nn(C(F)C(=O)N4CCC[C@H]4C(F)(F)F)c4cc(F)cc(F)c34)C2)ccn1 (stereo partly drawn) [Compound E-107, 2-{3-[1-(2-aminopyridine-4-carbonyl)azetidin-3-yl]-4,6-difluoro-1H-indazol-1-yl}-2-fluoro-1-[(2S)-2-(trifluoromethyl)pyrrolidin-1-yl]ethan-1-one]
320 | 3.5 | Cc1c(C(=O)N2CC(c3nn(CC(=O)N4CCC[C@H]4C(F)(F)F)c4cc(F)cc(F)c34)C2)ccnc1N [Compound E-77, 2-{3-[1-(2-amino-3-methylpyridine-4-carbonyl)azetidin-3-yl]-4,6-difluoro-1H-indazol-1-yl}-1-{(2S)-2-(trifluoromethyl)pyrrolidin-1-yl]ethan-1-one hydrochloride]
330 | 7.5 | Cc1ccc2c(n1)c(C1CN(C(=O)c3ccnc(N)c3)C1)nn2CC(=O)N1CCC[C@H]1C(F)(F)F [Compound E-12, 2-{3-[1-(2-aminopyridine-4-carbonyl)azetidin-3-yl]-5-methyl-1H-pyrazolo[4,3-b]pyridin-1-yl}-1-[(2S)-2-(trifluoromethyl)pyrrolidin-1-yl]ethan-1-one]
